From US5606037A, “Processes antineoplastic heteronaphthoquinones” (BioChem Pharma Inc., priority 1995, dated 1997) come the findings set out here.

What all share (type): cell-based, Human
Test [1] deals with HT 29 (Colon adenocarcinoma). Nature of the test: In vitro cytotoxicity, microculture tetrazolium (MTT) assay, HT29. Conditions: further 48 h, Table 1. How it is done: (§1) The microculture tetrazolium assay was used to test in vitro cytotoxicity. This assay is described in Plumb, J. A. et al., 1989 Cancer Research 49, 4435-4440, which is herein incorporated by reference. The cytotoxicity of compounds towards tumor cells is measured in vitro using the assay. This assay method is based upon the ability of live, but not dead cells to reduce the yellow water soluble dye 3-(4,5-dimethylthiazol-2-yl)-2,5-diphenyltetrazolium bromide (MTT) to its water insoluble purple formazan product.
(§2) Human Tumor Cell lines, used were:
HT 29 (Colon adenocarcinoma) ATCC catalog #HTB-38.
(§3) The cells were maintained in exponential growth in culture in minimal essential media (MEM) supplemented with non-essential amino acids, and containing 15% (v/v) fetal. bovine serum, 5 mM L-glutamine, 1 mM sodium pyruvate, and 0.1 U/ml insulin. All cell lines were grown at 37° C. in an atmosphere of 5% CO2 in air.
(§4) MTT: 2 mg/ml in phosphate buffered saline (stable at 4° C. in dark for 1 week).
(§5) Sorensen's buffer: 0.1M glycine/NaOH, pH 10.5, containing 0.1M NaCl.
(§6) Test compounds: 20 mM in DMSO and diluted to a final concentration of 200 μM in culture medium before use.
(§7) For each assay, doxorubicin is included as an inter-assay standard. This allows us to monitor the behaviour of the assay in general, and in particular, to check that the SKVLB line has maintained its resistant phenotype.
(§8) The assays are carried out in 96-well (8 well×12 well) microtiter plates. Serial dilutions of the compound are tested along the length of the plate. A 1:3 serial dilution of compound in culture medium covers a concentration range from 100 μM to 1.7 nM. Each concentration of compound is tested in quadruplet, allowing two compounds to be tested per plate. Wells containing no cells (blank) and cells with no test compound (control) are included on each plate.
(§9) Cells are plated out in 100 μl of culture medium in the microtiter plates at a density of around 1,500-4,000 cells per well. The plates are incubated overnight to allow the cells to become adherent after which the test compound is added (100 μl of appropriate dilution per well). The cells are incubated with test compound at 37° C. for 48 h after which the compound is replaced with fresh medium. After a further 48 h incubation at 37° C., 50 μl of MTT solution (2 mg/ml) is added to each well. The plates are incubated in the dark for 4 h at 37° C. after which the medium is removed. The MTT formazan product is extracted from the cells by the addition of 200 μl DMSO followed by 50 μl of Sorensen's buffer. The plates are shaken briefly and the absorbance at 570 nm is read using a Molecular Devices UV max plate reader. Curves are fit to the MTT assay data using a four parameter logistic equation, and the data are normalized to fit a 0% to 100% survival scale.

Test [2] concerns Lox (Melanoma). The test is described as follows: In vitro cytotoxicity, microculture tetrazolium (MTT) assay, LOX. The following applies: Homo sapiens, 48 h with compound, further 48 h, Table 1. As to the method: as §1, §2
Lox (Melanoma)--Southern Research Institute.
as §3, §4, §5, §6, §7, §8, §9

The test system of test [3] is SKOV3 (Ovarian adenocarcinoma). Nature of the test: In vitro cytotoxicity, microculture tetrazolium (MTT) assay, SKOV3. Conditions: SKOV3 ovarian adenocarcinoma, 48 h with compound, further 48 h, MTT, Table 1. How it is done: as §1, §2
SKOV3 (Ovarian adenocarcinoma)--provided by Dr. V. Ling, Ontario Cancer Institute.
as §3, §4, §5, §6, §7, §8, §9

Test [4] concerns SKVLB (Ovarian; multidrug resistant). Nature of the test: In vitro cytotoxicity, microculture tetrazolium (MTT) assay, SKVLB. The following applies: SKVLB multidrug resistant ovarian, 48 h with compound, further 48 h, MTT, Table 1. As to the method: as §1, §2
SKVLB (Ovarian; multidrug resistant)--Dr. V. Ling, Ontario Cancer Institute.
as §3, §4, §5, §6, §7, §8, §9

For test [5], the system named is T47D (Ductal carcinoma of breast). Nature of the test: In vitro cytotoxicity, microculture tetrazolium (MTT) assay, T47D. The following applies: 48 h with compound, further 48 h, Table 1. How it is done: as §1, §2
T47D (Ductal carcinoma of breast)--ATCC catalog #HTB-133.
as §3, §4, §5, §6, §7, §8, §9

The mark [6] stands for this setting: Homo sapiens, HT-29, 48 h with compound.

For the compound `CC(=O)O[C@H]1[C@@H](I)[C@H](O[C@@H]2O[C@@H](C(C)=O)CC3=C2C(=O)c2ccccc2C3=O)O[C@@H](C)[C@H]1OC(C)=O` [BCH1667, (1'S,1S,3R)-methyl-(1-[2',6'-dideoxy-3',4'-diacetoxy-2'-iodo-L-lyxohexopyranose]-5,10-dioxo-3,4,5,10-tetrahydronaphtho[2,3-c]-pyran-3-yl) ketone], the IC50 – broadly, the midpoint of a concentration-inhibition curve – in test [1] (setting [6]) is 1.6 nM; in test [2], 13.3 nM; in test [3] (Homo sapiens, SK-OV-3), 12.2 nM; in test [4] (Homo sapiens) it was 89.3 nM.

Regarding `CC(=O)O[C@H]1[C@@H](I)[C@H](O[C@H]2O[C@H](C(C)=O)CC3=C2C(=O)c2ccccc2C3=O)O[C@@H](C)[C@H]1OC(C)=O` [BCH1666, (1'S,1R,3S)-methyl-(1-[2',6'-dideoxy-3'-4'-diacetoxy-2'-iodo-L-lyxohexopyranose]-5,10-dioxo-3,4,5,10-tetrahydronaphtho[2,3-c]-pyran-3-yl) ketone], the IC50 in test [1] (setting [6]) amounted to 78.3 nM; in test [2], 125 nM; in test [3] (Homo sapiens, SK-OV-3) it was 272 nM; in test [4] (Homo sapiens), 205 nM.

With `C[C@@H]1O[C@@H](OC2OC(C#N)CC3=C2C(=O)c2ccccc2C3=O)C[C@H](NC(=O)C(F)(F)F)[C@@H]1O` (mixture of isomers) [BCH1688, (1'-S, 1-R, 3-S) and (1'-S, 1-S, 3-R)-3-cyano-1-[2',3',6'-trideoxy-3'-trifluoroacetamido-4'-hydroxy-L-lyxohexopyranose)-5,10-dioxo-3,4,5,10-tetrahydronaphtho-[2,3C]pyran-3-yl], the IC50 in test [1] (setting [6]) was determined as 1350 nM; in test [2], 402 nM; in test [3] (Homo sapiens, SK-OV-3), 634 nM; in test [4] (Homo sapiens), 2770 nM.

As to `CC(C)OC(=O)[C@@H]1CC2=C(C(=O)c3ccccc3C2=O)[C@@H](O[C@H]2C[C@H](NC(=O)C(F)(F)F)[C@H](O)[C@H](C)O2)O1` [BCH2122, (1'S, 1R, 3S)-5,10-dioxo-3-isopropoxycarbonyl-1-(2',3',6'-trideoxy-3'-trifluoroacetamido-L-lyxohexopyranose)-3,4,5,10-tetrahydro-1H-naphtho-[2,3-c]-pyran], the 50% inhibitory concentration (IC50) in test [1] (setting [6]) stood at 640 nM; in test [2], 730 nM; in test [3] (Homo sapiens, SK-OV-3) it was 370 nM; in test [4] (Homo sapiens), 2000 nM.

Consider `CC[C@H]1CC2=C(C(=O)c3ccccc3C2=O)[C@H](NC(C)=O)O1` (relative stereo) [BCH2027, Trans-5,10-dioxo-1-acetamido-3-ethyl-3,4,5,10-tetrahydro-1H-naphtho-[2,3-c]-pyran], for which the IC50 turned out to be 15400 nM in test [1] (setting [6]); 7010 nM in test [3] (Homo sapiens, SK-OV-3); 29000 nM in test [4] (Homo sapiens).

Regarding `CC(C)OC(=O)[C@H]1CC2=C(C(=O)c3ccccc3C2=O)[C@H](O[C@H]2C[C@H](NC(=O)C(F)(F)F)[C@H](O)[C@H](C)O2)O1` [BCH2121], the IC50 was determined as 340 nM in test [1] (setting [6]); 340 nM in test [2]; 210 nM in test [3] (Homo sapiens, SK-OV-3); 1300 nM in test [4] (Homo sapiens).

Regarding `COC(=O)[C@@H]1CC2=C(C(=O)c3ccccc3C2=O)[C@@H](O[C@H]2C[C@H](NC(=O)C(F)(F)F)[C@H](O)[C@H](C)O2)O1` [BCH2128, (1'S, 1R, 3S)-5,10-dioxo-3-methoxycarbonyl-1-(2',3',6'-trideoxy-3'-trifluoroacetamido-L-lyxohexopyranose)-3,4,5,10-tetrahydro-1H-naphtho-[2,3-c]-pyrano], the IC50 in test [1] (setting [6]) came out at 1600 nM; in test [2], 1400 nM; in test [3] (Homo sapiens, SK-OV-3) it was 1700 nM; in test [4] (Homo sapiens) it was 5800 nM.

Consider `CC(=O)[C@]1(C)CC2=C(C(=O)c3ccccc3C2=O)[C@H](O[C@H]2C[C@H](NC(=O)C(F)(F)F)[C@H](O)[C@H](C)O2)O1` [BCH2090, (1'S,1S,3S)-1-(3'-trifluoroacetamido-2',3',6'-trideoxy-lyxo-L-hexopyranose)-3-acetyl-3-methyl-3,4,5,10-tetrahydro-5,10-dioxo-1H-naphtho-[2,3-c]pyran], for which the IC50 was 10400 nM in test [1] (setting [6]); 11000 nM in test [3] (Homo sapiens, SK-OV-3); 36000 nM in test [4] (Homo sapiens).

`COC1OC(C(=O)NCCN2CCOCC2)=CC2=C1C(=O)c1ccccc1C2=O` (centres unmarked) [BCH2170, 1-methoxy-3-[2-(N-morpholino)ethylaminocarbonyl]-5,10-dioxo-5,10-dihydro-1H-naphtho-[2,3-c]-pyran]: the IC50 in test [1] (setting [6]) was 244 nM; in test [3] (Homo sapiens, SK-OV-3) it was 259 nM; in test [4] (Homo sapiens), 394 nM.

With `COC1OC(C(=O)NCCN2CCOCC2)=CC2=C1C(=O)c1ccccc1C2=O` (centres unmarked) [BCH2171, 1-methoxy-3-[2-(N-morpholine)ethylaminocarbonyl]-5,10-dioxo-5,10-dihydro-1H-naphtho-[2,3-c]-pyran], the figures for the IC50 in test [5] and in test [4] were 398 nM and 422 to 440 nM, respectively.

For the compound `COC1OC(C(=O)NCCCN2CCCC2=O)=CC2=C1C(=O)c1ccccc1C2=O` (centres unmarked) [BCH2166, 1-methoxy-3-(3-N-pyrrolidinomylpropylaminocarbonyl)-5,10-dioxo-5,10-dihydro-1H-naphtho-[2,3-c]-pyran], the IC50 in test [1] (48 h with compound) is 443 to 1200 nM; in test [5], 237 nM; in test [3], 140 to 181 nM.

Regarding `COC[C@@H]1CC2=C(C(=O)c3ccccc3C2=O)[C@@H](O[C@H]2C[C@H](NC(=O)C(F)(F)F)[C@H](O)[C@H](C)O2)O1` [BCH1691, (1'S, 1R, 3S)-5,10-dioxo-3-methoxymethyl-1-(2',3',6'-trideoxy-3'-trifluoroacetamido-L-lyxohexopyranose)-3,4,5,10-tetrahydro-1H-naphtho-[2,3-c]-pyran], the IC50 in test [1] (setting [6]) amounted to 7160 nM; in test [2], 4490 nM; in test [3] (Homo sapiens, SK-OV-3), 8830 nM; in test [4] (Homo sapiens), 18500 nM.

In the case of `CC(=O)[C@H]1CC2=C(C(=O)c3ccccc3C2=O)[C@H](O[C@H]2C[C@H](NC(=O)C(F)(F)F)[C@H](O)[C@H](C)O2)S1` [BCH2127, (1'S, 1R, 3R)-1-(3'-trifluoroacetamido-2',3',6'-trideoxy-L-lyxohexopyranose)-3-acetyl-5,10-dioxo-3,4,5,10-tetrahydro-1H-naphtho-[2,3-c]-thiopyran], the half-maximal inhibitory concentration (IC50) came to 2700 nM in test [1] (setting [6]); 2000 nM in test [2]; 350 nM in test [3] (Homo sapiens, SK-OV-3); 4100 nM in test [4] (Homo sapiens).

For the compound `CC(=O)O[C@@H]1[C@H](C)O[C@@H](OC2OC(C(C)=O)CC3=C2C(=O)c2ccccc2C3=O)C[C@@H]1OC(C)=O` (mixture of isomers) [BCH2118, (1'S,1S,3R) and (1'S,1R,3S)-methyl-(1-[dideoxy-2',6'-diacetoxy-3',4'-L-lyxohexopyranose]-5,10-dioxo-3,4,5,10-tetrahydronaphtho-[2,3-c]-pyran-3-yl) ketone], the IC50 in test [1] (setting [6]) came out at 203 nM; in test [5] (Homo sapiens), 244 nM; in test [3] (Homo sapiens, SK-OV-3), 120 nM.

In the case of `CC(=O)C1CC2=C(C(=O)c3ccccc3C2=O)C(OC2CC(NC(=O)C(F)(F)F)C(O)C(C)O2)O1` [BCH2145, (1S, 3R)-1-(2',3',6'-trideoxy-3'-trifluoroacetamido-4'-hydroxy-1,5-dihydro-L-lyxohexopyranose-2-yl)-5,10-dioxo-3,4,5,10-tetrahydro-1H-naphtho-[2,3-c] pyran], the IC50 in test [5] was found to be 1780 nM.

Consider `COC(=O)C1=CC2=C(CO1)C(=O)c1ccccc1C2=O` [BCH2830, 3-methoxy carbonyl-5,10-dioxo-5,10-dihydro-1H-naphtho-[2,3-c]-pyran], for which the IC50 in test [1] (setting [6]) was 12500 nM; in test [3] (Homo sapiens, SK-OV-3) it was 7120 nM.

For the compound `COC(=O)C1(C(=O)OC)CC2=C(CO1)C(=O)c1ccccc1C2=O` [BCH1665, 3,3-bis-(methoxycarbonyl)-5,10-dioxo-3,4,5,10-tetrahydro-1H-naphtho-[2,3-c]-pyran], the concentration for half-maximal inhibition (IC50) was 60400 nM in test [1] (setting [6]); 11500 nM in test [2]; 25400 nM in test [3] (Homo sapiens, SK-OV-3); 28900 nM in test [4] (Homo sapiens).
